Experimental data as given in patent US11358959B2, “Benzothiophene and benzothiazole compounds and methods of use thereof” (Araxes Pharma LLC, priority 2017, dated 2022).

The molecules below were run against T1, KRAS G12C 1-169, his-tagged protein, GDP-loaded (Homo sapiens, UniProt P01116, G12C) (assay: Biochemical assay: covalent binding to KRAS G12C by mass spectrometry). Conditions: covalently bind to KRAS G12C after a thirty minute incubation period.
T1 construct: KRAS G12C 1-169, his-tagged protein, GDP-loaded; His
T1 sequence (P01116 1-169 isoform P01116-2 G12C): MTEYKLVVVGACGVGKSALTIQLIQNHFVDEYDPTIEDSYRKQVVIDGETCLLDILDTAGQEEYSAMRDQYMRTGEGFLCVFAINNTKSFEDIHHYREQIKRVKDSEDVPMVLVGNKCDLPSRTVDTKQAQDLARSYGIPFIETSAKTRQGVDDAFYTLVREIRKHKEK
Experimental: Test compounds were prepared as 10 mM stock solutions in DMSO (Fisher cat #BP-231-100). KRAS G12C 1-169, his-tagged protein, GDP-loaded was diluted to 2 μM or 0.5 μM in buffer (20 mM Hepes, 150 mM NaCl, 1 mM MgCl2). Compounds were tested for activity as follows:
Compounds were diluted to 50× final test concentration in DMSO in 96-well storage plates. Compound stock solutions were vortexed before use and observed carefully for any sign of precipitation. Dilutions were as follow: • For 100 μM final compound concentration, compounds were diluted to 5000 μM (5 μL 10 mM compound stock+5 μL DMSO and mixed well by pipetting. • For 30 […] final compound concentration, compounds were diluted to 1500 μM (3 μL 10 mM compound stock+17 μL DMSO) and mixed well by pipetting. • For 10 μM final compound concentration, compounds were diluted to 500 μM (2 μL 10 mM compound stock+38 μL DMSO) and mixed well by pipetting. 49 μL of the stock protein solution was added to each well of a 96-well PCR plate (Fisher cat #1423027). 1 μl of the diluted 50× compounds were added to appropriate wells in the PCR plate using 12-channel pipettor. Reactions were mixed carefully and thoroughly by pipetting up/down with a 200 μL multi-channel pipettor. The plate was sealed well with aluminum plate seal, and stored in drawer at room temperature for 10 minutes, 30 minutes, 2 hours or 24 hours. 5 μL of 2% formic acid (Fisher cat #A117) in de-ionized H2O was then added to each well followed by mixing with a pipette. The plate was then resealed with aluminum seal and stored on dry ice until analyzed as described below.
The above described assays were analyzed by mass spectrometry according to one of the following two procedures:
The MS instrument is set to positive polarity, 2 GHz resolution, and low mass (1700) mode and allowed to equilibrate for 30 minutes. The instrument is then calibrated, switched to acquisition mode and the appropriate method loaded.
After another 30 minute equilibration time, a blank batch (i.e., buffer) is run to ensure equipment is operating properly. The samples are thawed at 37° C. for 10 minutes, briefly centrifuged, and transfer to the bench top. Wells A1 and H12 are spiked with 1 μL 500 μM internal standard peptide, and the plates centrifuged at 2000×g for 5 minutes. The method is then run and masses of each individual well recorded.
The masses (for which integration data is desired) for each well are pasted into the platemap and exported from the analysis. Masses for the internal standards are exported as well. The data at 50 ppm is extracted for the +19 charge state, and identity of well A1 is assigned using the internal standard spike and integrated. Peak data is exported as a TOF list and the above steps are repeated individually, for the +20, 21, 22, 23, 24, and 25 charge states.
The masses and peak intensities of KRAS G12C protein species were measured using a Dionex RSLCnano system (Thermo Scientific) connected to a Q Exactive Plus mass spectrometer (Thermo Scientific).
[…] of sample was each loaded onto a Aeris™ 3.6 μm WIDEPORE C4 200 Å, LC Column 50×2.1 mm column maintained at 40° C. at a flow rate of 600 μL/min with 20% Solvent A (0.1% formic acid in H2O) and 80% Solvent B (0.1% formic acid in acetonitrile). The liquid chromatography conditions were 20% solvent B for 1 minute, 20% to 60% solvent B for 1.5 minutes, 60% to 90% solvent for 0.5 minute, 90% solvent B for 0.2 minute, 90% to 20% solvent B for 0.2 minute, and then equilibrated for 1.6 minute before the following sample injection. The flow rate was maintained at 600 μL/min throughout the sample analysis.
The mass spectrometer was operated in profile mode at a resolution of 17500, 5 microscans, using 50 msec max injection time and an AGC target of 1×10^6, and a full mass range from 800-1850 m/z was recorded. The HCD trapping gas was optimized for maximum sensitivity for intact proteins. […]

Structure (SMILES)	Binding %
C=CC(=O)N1CC(c2ccc3cc(-c4cc(O)cc5ccccc45)sc3c2)C1 [Compound 1, 1-(3-(2-(3-hydroxynaphthalen-1-yl)benzo[b]thiophen-6-yl)azetidin-1-yl)prop-2-en-1-one]	+++ (+++ indicates binding activity greater than 50%)
C=CC(=O)N1CC(c2ccc3cc(-c4c(C)ccc5[nH]ncc45)sc3c2)C1 [Compound 2, 1-(3-(2-(5-methyl-1H-indazol-4-yl)benzo[b]thiophen-6-yl)azetidin-1-yl)prop-2-en-1-one]	++ (++ indicates binding activity from 10 to 50%)
C=CC(=O)N1CC(c2ccc3nc(-c4c(C)ccc5[nH]ncc45)sc3c2)C1 [Compound 3, 1-(3-(2-(5-methyl-1H-indazol-4-yl)benzo[d]thiazol-6-yl)azetidin-1-yl)prop-2-en-1-one]	+ (+ indicates binding activity up to 10%)
C=CC(=O)N1CC(c2ccc3nc(-c4cc(O)cc5ccccc45)sc3c2)C1 [Compound 4, 1-(3-(2-(3-hydroxynaphthalen-1-yl)benzo[d]thiazol-6-yl)azetidin-1-yl)prop-2-en-1-on]	+++ (+++ indicates binding activity greater than 50%)
C=CC(=O)N1CC(c2ccc3nc(-c4cc(O)cc5ccccc45)oc3c2)C1 [Compound 5, 1-(3-(2-(3-hydroxynaphthalen-1-yl)benzo[d]oxazol-6-yl)azetidin-1-yl)prop-2-en-1-one]	+++ (+++ indicates binding activity greater than 50%)
C=CC(=O)N1CC(c2ccc3nc(-c4c(C)ccc5[nH]ncc45)oc3c2)C1 [Compound 6, 1-(3-(2-(5-methyl-1H-indazol-4-yl)benzo[d]oxazol-6-yl)azetidin-1-yl)prop-2-en-1-one]	++ (++ indicates binding activity from 10 to 50%)
